# “Also recorded” adds a separate entry of the source.
# Assays:
# [1] = tested on: Male Sprague-Dawley rats; test: scMET-induced seizure protection, rats; format: in vivo; conditions: i.p. 30 minutes prior; pentylenetetrazole 35 mg/kg
# Description: A 35 mg/kg subcutaneous dose of pentylenetetrazole was given and the percent outcome of seizure was recorded. Results were analyzed using ANOVA (Dunnett's test: *P<0.05).
# Test subjects were given a test compound, followed by a 35 mg/kg dose of MET and observed for convulsions (FIG. 7).
# (§1) Results were analyzed using ANOVA (Dunnett's test: *P<0.05).
# [2] = tested on: Male Sprague-Dawley rats; test: von Frey filament test in spinal nerve ligated (SNL) rats; format: in vivo
# Description: FIG. 11 is a graph of time versus withdrawal threshold for KRM-II-81, Gabapentin, and vehicle, showing the effect of KRM-II-81 on antihyperalgesia in the von Frey filament assay. Male Sprague-Dawley rats (n=5) were dosed i.p. either vehicle, KRM-II-81 (30 mg/kg), or gabapentin (50 mg/kg) and tested in the von Frey filament assay after undergoing SNL 90 days prior. Results were analyzed using ANOVA (Dunnett's test: *P<0.05).
# The von Frey filament test is used to test for antihyperalgesia, or an increased sensitivity to pain. […] The von Frey filaments are used to apply pressure to the forelimbs of test subjects at set amounts. When pressure becomes too great, the forelimb is withdrawn and the amount of force applied recorded. The spinal nerve ligation induced hyperalgesia, reducing the amount of force a limb can take before being withdrawn.
# Test compounds were given to test the effectiveness of combating the hyperalgesic effect of SNL. Male Sprague-Dawley rats went through SNL at least 90 days prior to the von Frey testing. Rats were first tested without given an injection to determine a baseline. Following baseline establishment, rats (n=5 for all groups) were dosed i.p. with vehicle (1% carboxymethyl cellulose), KRM-II-81 (30 mg/kg), or gabapentin (50 mg/kg). Subjects were then tested every hour for four hours to determine the antihyperalgesic effect of the test compounds. For testing, pressure using von Frey filaments was applied to the forelimb of the rat. Pressure was increased until the limb was withdrawn, and the amount of pressure was recorded.
# [3] = tested on: Male NIH Swiss mice; test: Forced swim test; format: in vivo; conditions: 10 and 30 mg/kg i.p.
# Description: FIG. 16 is a graph of immobility illustrating the antidepressant effects of KRM-II-81 assessed in the forced swim test. Male NIH Swiss mice (n=7-8) were dosed i.p. with vehicle (1% HEC, 0.25% Tween 80, 0.05% antifoam), KRM-II-81 (3, 10, or 30 mg/kg), or imipramine (15 mg/kg) and assessed in the forced swim test. Results were analyzed using ANOVA (Dunnett's test *P<0.05).
# The forced swim test is used as a primary screen for the antidepressant nature of a test compound. Mice are placed in a cylinder filled with a small amount of water. Mice that are more mobile after a dosing of a compound are determined to be less depressed.
# The experiment was carried out as described by Porsolt et al. (Arch. Int. Pharmacodyn. Ther. 1977, 229, 327-366). Male NIH Swiss mice (n=7-8) were dosed i.p. with vehicle (1% HEC, 0.25% Tween 80, 0.05% antifoam), KRM-II-81 (3, 10, or 30 mg/kg), or imipramine (15 mg/kg) and assessed in the forced swim test. Mice were placed individually in clear plastic cylinders (10 cm in diameter×25 cm in height) filled to 6 cm with 22-25° C. water for 6 minutes. The duration of immobility was recorded during the last 4 minutes of a 6-minute trial. A mouse was regarded as immobile when floating motionless or making only those movements necessary to keep its head above the water.
# [4] = tested on: Mice; test: scMET test for anticonvulsant activity, mice; format: in vivo
# Description: Mice were then dosed i.p. with 5, 10, 25, or 50 mg/kg of KRM-II-81.
# [5] = molecular target: CYP2C9 (Homo sapiens, UniProt P11712); test: CYP substrate assessment, CYP2C9
# Sequence of CYP2C9 (P11712 whole entry): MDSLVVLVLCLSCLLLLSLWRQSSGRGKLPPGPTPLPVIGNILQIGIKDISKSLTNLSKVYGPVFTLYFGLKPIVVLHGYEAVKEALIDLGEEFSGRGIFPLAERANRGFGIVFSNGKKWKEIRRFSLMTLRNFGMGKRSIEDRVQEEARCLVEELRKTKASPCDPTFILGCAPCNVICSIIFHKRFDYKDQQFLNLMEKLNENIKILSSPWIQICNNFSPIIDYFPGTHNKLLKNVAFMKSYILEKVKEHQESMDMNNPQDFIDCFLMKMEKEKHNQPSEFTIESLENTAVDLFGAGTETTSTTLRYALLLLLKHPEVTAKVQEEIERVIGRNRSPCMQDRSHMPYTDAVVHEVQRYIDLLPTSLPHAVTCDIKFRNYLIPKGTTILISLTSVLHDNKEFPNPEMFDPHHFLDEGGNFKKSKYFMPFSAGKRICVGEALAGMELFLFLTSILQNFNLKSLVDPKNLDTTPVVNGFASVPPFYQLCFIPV
# [6] = tested on: Male CD-1 mice; test: Maximal electroshock (MES)-induced convulsion protection; format: in vivo; conditions: i.p. 30 minutes prior to test
# Description: Male CD-1 mice (n=10) were dosed i.p. 30 minutes prior to being tested. Results were analyzed using ANOVA (Dunnett's test versus vehicle: *P<0.05).
# The maximal electroshock (MES) assay is designed to determine how well a test compound can prevent seizures induced by applying a voltage stimuli to a mouse.
# Mice were subjected to electrical induced tonic seizures and examined for anticonvulsant effects 30 minutes after treatment. Mice were then given a 7 mA electroshock using a Wahlquist Model H for 0.2 seconds and observed for the presence or absence of seizure activity. Each mouse is tested only once and euthanized immediately following the test.
# [7] = tested on: Male Sprague-Dawley rats; test: Inverted screen test (muscle relaxation); format: in vivo
# Description: as §1
# The inverted screen test is used to measure whether or not a test compound induces muscle relaxation. When a test subject is placed on a wire screen which is then inverted, the reaction is to climb to the opposite side so they are no longer hanging upside down. If a compound promotes muscle relaxation, the test subjects will either fall off, or hang onto the screen without being able to climb to the opposite side.
# Rats were placed onto the top of a wire screen, which was then inverted so that the rats were hanging upside down. […] Results were analyzed using ANOVA (Dunnett's test: *P<0.05).
# [8] = Pharmacokinetics and brain concentration after 10 mg/kg P.O. dose, rats; format: in vivo
# Description: In a 10 mg/kg oral dose in rats, a concentration of 644 ng/g of KRM-II-81 was found unbound in the brain, indicating a great pharmacokinetic-profile.
# Although these are different species, the numbers can still be compared.
compound,measurement,setting,value
"C#Cc1ccc2c(c1)C(c1ccccn1)=NCc1c(-c3cnco3)ncn1-2 [KRM-II-81, 5-(8-Ethynyl-6-(pyridin-2-yl)-4H-benzo[f]imidazo[1,5-a][1,4]diazepin-3-yl)oxazole]",dose achieving significant protection against scMET seizures,[1],30 mg/kg
same,statistical significance of antihyperalgesic effect,"[2]; KRM-II-81 30 mg/kg at one hour, gabapentin 50 mg/kg",able to reach significance
same,"antihyperalgesic activity, von Frey after SNL","[2]; KRM-II-81 30 mg/kg, gabapentin 50 mg/kg i.p.",active as antihyperalgesics
same,pain threshold (force before removing paw),"[2]; from 1-2 hours, vehicle ˜5 g",~12 g
same,antidepressant effects (immobility),[3],demonstrated antidepressant effects
same,Protected (animals protected/tested),[4]; Dose 5 mg/kg i.p.,0/8
same,Protected (animals protected/tested),[4]; Dose 10 mg/kg i.p.,5/8
same,Protected (animals protected/tested),[4]; Dose 25 mg/kg i.p.,7/8
same,Protected (animals protected/tested),[4]; Dose 50 mg/kg i.p.,8/8
same,ED50,"[4]; Mus musculus, ip, half hour time point, mice",10.9 mg/kg
same,substrate of CYP2C9,[5],not found to be a substrate
same,protection against MES-induced seizures,[6],greater effectiveness than HZ-166; also recorded: fully protected against seizure induction
same,muscle relaxation / motor impairment in inverted screen,"[7]; i.p. 30 minutes prior, diazepam 3, 10, 30 mg/kg, KRM-II-81 10, 30, 60 mg/kg, HZ-166 30 mg/kg",Neither HZ-166 nor KRM-II-81 induced significant muscle relaxation
same,dose at which signs of muscle relaxation began to appear,"[7]; i.p., inverted screen",60 mg/kg
same,concentration in the blood relative to HZ-166,"[8]; Cmax, 10 mg/kg P.O., KRM-II-81 in rats vs HZ-166 in mice",~500 times
same,Tmax,"[8]; rat, blood, po, 10 mg/kg P.O., rats",1.3 h
same,Cmax,"[8]; rat, blood, po, 10 mg/kg P.O., rats, read-out: Cmax (highest concentration found in blood)",1750 ng/mL
same,concentration at 1 h,"[8]; rat, brain (unbound), 10 mg/kg oral dose, one hour after dose, rats stated for KRM-II-81, read-out: brain unbound concentration ([brain]u)",644 ng/g
same,fraction unbound,"[8]; rat, 10 mg/kg oral dose, brain, read-out: free fraction",0.18
